Results published in patent US20250042909A1, “POLYMORPH FORMS OF A 5H-PYRROLO[2,3-b]PYRAZINE DERIVATIVE, METHODS OF PREPARATION, AND USES THEREFORE” (BeiGene, Ltd., priority 2022, published 2025).
Counter-ions that a name gives are not always drawn.

Assays:
[1] = Dynamic vapor sorption (DVS) hygroscopicity test; format: physicochemical; conditions: for Hygroscopicity: DVS at 25° C.
Protocol: Dynamic vapor sorption (DVS) analysis was conducted using SMS DVS Intrinsic using one of below methods:
(§1) Sample was weighted to the microbalance. The relative humidity was set to 0% with N2 flow of 200 sccm. The equilibrium was assumed when the weight change of the sample was <0.001 wt % in 10 min or by a maximum equilibration time of 180 minutes. […] Between two equilibrium steps, dm/dt is 0.002%/min. At each equilibrium step, the equilibrium was assumed when the weight change of the sample was <0.001 wt % in 10 min or by a maximum equilibration time of 180 minutes.
as §1, with “the closes decile of ambient humidity” for “0%”
as §1, with “40%” for “0%”, “60” for “10”, “360” for “180”

[2] = Solid-state chemical and physical stability under stress and storage conditions; format: physicochemical; conditions: for Chemical and physical stability: 25° C./92% RH open, 40° C./75% RH open, 60° C. tight container, over 1 week
Protocol: Solid form stability of freeform Type A was investigated in process solvents EtOH/H2O and MeOH/H2O. […] Purity change in all the rest conditions (40° C./75% RH/open for 2 weeks, 60° C./sealed for 10 days, RT/92.5% RH/open for 10 days, 25° C./60% RH/open for 8 weeks and UV (290 wμ/cm2) for 3 days) was less than 0.4 area %. […]

[3] = Solid form stability in process solvents; format: physicochemical; conditions: MeOH at 50° C.
Protocol: Solid form stability of freeform Type A was investigated in process solvents EtOH/H2O and MeOH/H2O. […] Purity change in all the rest conditions (40° C./75% RH/open for 2 weeks, 60° C./sealed for 10 days, RT/92.5% RH/open for 10 days, 25° C./60% RH/open for 8 weeks and UV (290 wμ/cm2) for 3 days) was less than 0.4 area %.

[4] = Pharmacokinetic studies in rats; format: in vivo, male SD rats; conditions: for AUC(0-t): read-out: AUC0-24h
Protocol: (§2) Pharmacokinetic studies of Compound A were conducted in male SD rats (Vital River, 8 weeks, 3 animals per dosing route) following Institutional Animal Care and Use Committee guidelines. Intravenous administration was formulated as 1.0 mg/mL solution in N,N-dimethylacetamide:30% solutol HS-15(w/v):saline=20:20:60 (V:V:V). Oral administration was formulated as 1.0 mg/mL suspension in 0.5% methyl cellulose. Blood samples were collected over a 24-h period post-dose. Plasma was isolated and processed with the below protocol: To an aliquot of 10 μL plasma was added 200 μL ACN containing 5 ng/mL terfenadine as internal standard. The mixture was vortexed for 1 min and centrifuged at 4000 rpm for 10 min. An aliquot of 50 μL supernatant was diluted with 150 μL acetonitrile/water. The concentration of Compound A was determined by LC-MS-MS. Non-compartmental pharmacokinetic analysis was performed on the concentration-time data.

[5] = Pharmacokinetic studies in mice; format: in vivo, male CD-1 mice; conditions: for AUC(0-t): male, CD-1, mouse, plasma, read-out: AUC0-24h
Protocol: Compound A free form amorphous (115.7 mg) was prepared by lyophilizing a suspension of compound A free form in water with a minimum amount of acetonitrile.
as §2, with “in male CD-1 mice (Vital River,” for “in male SD rats (Vital River,”, “formulated as 0.20 mg/mL solution” for “formulated as 1.0 mg/mL solution”, “N,N-dimethylacetamide:30% solutol HS-15(w/v): saline=20:20:60 (V:V:V). Oral” for “N,N-dimethylacetamide:30% solutol HS-15(w/v):saline=20:20:60 (V:V:V). Oral”, “suspension in 0.500 methyl cellulose.” for “suspension in 0.5% methyl cellulose.”, “for 1 m and centrifuged” for “for 1 min and centrifuged”

[6] = PO Dose 10 mpk calculated as free form, 10 mg/kg
[7] = male, SD, rat, plasma, po, 10 mg/kg, PO Dose 10 mpk calculated as free form

With Cc1cc(-c2c[nH]c3ncc(-c4cc(C)c5c(c4)CCN(C)C5)nc23)ccc1C(=O)N(C)C [L-malate salt Type A, 4-[2-(2,8-dimethyl-1,2,3,4-tetrahydroisoquinolin-6-yl)-5H-pyrrolo[2,3-b]pyrazin-7-yl]-N,N,2-trimethylbenzamide] the “Form change after the DVS test” value [1] was “No form change”, the Hygroscopicity ([1]; listed as L-malate salt Pattern A) was “hygroscopic” and the “Water absorbed (DVS)” value ([1]; from 40% RH to 95% RH at 25° C.) was “about 7.9%”. The “Chemical and physical stability” value [2] was “chemically and physically stable”.
In the case of Cc1cc(-c2c[nH]c3ncc(-c4cc(C)c5c(c4)CCN(C)C5)nc23)ccc1C(=O)N(C)C [freeform Type A, 4-[2-(2,8-dimethyl-1,2,3,4-tetrahydroisoquinolin-6-yl)-5H-pyrrolo[2,3-b]pyrazin-7-yl]-N,N,2-trimethylbenzamide], the “Form change in process solvent” value [3] is reported as “No form change”, the “HPLC area purity change” value ([2]; 40° C./75% RH/open 2 weeks, 60° C./sealed 10 days, RT/92.5% RH/open 10 days, 25° C./60% RH/open 8 weeks, UV 3 days) is reported as “less than 0.4 area %” and the “HPLC area purity decrease” value ([2]; Vis (10000 Lux) for 5 days) is reported as about 1.2 area %. The “Form change (physical stability)” value ([2]; under the laboratory conditions) was “No form change”.
Work on Cc1cc(-c2c[nH]c3ncc(-c4cc(C)c5c(c4)CCN(C)C5)nc23)ccc1C(=O)N(C)C [Compound A citrate type A, 4-[2-(2,8-dimethyl-1,2,3,4-tetrahydroisoquinolin-6-yl)-5H-pyrrolo[2,3-b]pyrazin-7-yl]-N,N,2-trimethylbenzamide] yielded an AUC0-24h [4, 6] of 1603 ng·h/mL, a Cmax [4, 6] of 445 ng/mL and a F % [4, 6] of 24.4%. For the same compound, the tmax [4, 6] was 2.67 h, the “Form change after the DVS test” value [1] was “No form change” and the Hygroscopicity ([1]; listed as citrate salt type A) was “slightly hygroscopic”. The “Water absorbed (DVS)” value ([1]; from 0% RH to 95% RH at 25° C.) was “about 0.7%”, the Long-term stability ([2]; 3-month experiment) was “excellent long-term stability” and the “Chemical and physical stability” value [2] was “chemically and physically stable”. The AUC0-24h [5, 6] was 2990 ng·h/mL, the Cmax [5, 6] was 640 ng/mL and the F % [5, 6] was 86.9%. For the same compound, the t1/2 [5, 6] was 7.95 h and the tmax [5, 6] was 1.50 h.
Cc1cc(-c2c[nH]c3ncc(-c4cc(C)c5c(c4)CCN(C)C5)nc23)ccc1C(=O)N(C)C [Compound A free form amorphous, 4-[2-(2,8-dimethyl-1,2,3,4-tetrahydroisoquinolin-6-yl)-5H-pyrrolo[2,3-b]pyrazin-7-yl]-N,N,2-trimethylbenzamide] showed a half-life ([4]; male, SD, rat, plasma, 10 mg/kg, PO Dose 10 mpk calculated as free form) of 4.05 h, an AUC(0-t) ([4]; male, SD, rat, plasma, iv, 1 mg/kg, IV Dose 1 mpk calculated as free form) of 656 ng·h/mL and a bioavailability [4, 7] of 17.2%. The AUC(0-t) [4, 7] was 1120 ng·h/mL, the Cmax ([4]; male, SD, rat, plasma, po, 10 mg/kg, PO Dose 10 mpk calculated as free form, read-out: Cmax) was 235 ng/mL and the tmax ([4]; male, SD, rat, plasma, po, 10 mg/kg, PO Dose 10 mpk calculated as free form, read-out: tmax) was 2 h. It also gave a Cmax [5, 6] of 177 ng/mL, a F % [5, 6] of 55.2% and a t1/2 [5, 6] of 3.63 h. The tmax [5, 6] was 3.50 h, the AUC(0-t) ([5]; iv, 1 mg/kg, IV Dose 1 mpk calculated as free form) was 344 ng·h/mL and the AUC(0-t) ([5]; po, 10 mg/kg, PO Dose 10 mpk calculated as free form) was 1900 ng·h/mL.
For Cc1cc(-c2c[nH]c3ncc(-c4cc(C)c5c(c4)CCN(C)C5)nc23)ccc1C(=O)N(C)C [Citrate Type B, 4-[2-(2,8-dimethyl-1,2,3,4-tetrahydroisoquinolin-6-yl)-5H-pyrrolo[2,3-b]pyrazin-7-yl]-N,N,2-trimethylbenzamide], the “Form conversion on storage” value ([2]; ambient and open conditions (about 25° C. and about 80% RH) over 1 week) was “converted to Type A”.
